The numbers were not newly measured in US20260183398A1, “RADIOLUMINESCENT NANOPARTICLES FOR RADIATION-TRIGGERED CONTROLLED RELEASE DRUGS” (Purdue Research Foundation, priority 2017, published 2026), which cites them from elsewhere.

Each structure is given as a SMILES string.

For data set [1] the following is noted: PTX intratumorally delivered to mouse xenografts in the polymer encapsulated form.
For data set [2] the following is noted: reported.
For data set [3] the following is noted: systemic chemotherapy, about 200 mg/m2.

With `CC(=O)O[C@H]1C(=O)[C@@]2(C)[C@H]([C@H](OC(=O)c3ccccc3)[C@]3(O)C[C@H](OC(=O)[C@H](O)[C@@H](NC(=O)c4ccccc4)c4ccccc4)C(C)=C1C3(C)C)[C@]1(OC(C)=O)CO[C@@H]1C[C@@H]2O` [PTX, paclitaxel], the “tumor elimination rate constant ket” value in data set [1] is given as 0,005 h^−1. For the same molecule, in data set [2], the “in vitro IC90” value is listed as “≈ 0.09 μg PTX per mg tumor” and the “in vitro IC90 (PTX concentration giving rise to 90% cell kill in vitro)” value is listed as “about 90 μg/mL”. For the same molecule, the “patients with dermatological side effects (skin, hair, nail)” value in data set [3] is listed as 86.8%.
